Laboratory results: the NIST ThermoML archive (doi:10.1021/je5001457)
Numbers after ± are expanded uncertainties.

Details: for kinematic viscosity: Liquid

C=C(F)C(F)(F)F [2,3,3,3-tetrafluoro-1-propene]
light scattering
Details | kinematic viscosity [m2/s] | surface tension liquid-gas [mN/m]
293.15 K | 1.44e-07 ± 5.8e-09 | 6.82 ± 0.21
303.09 K | 1.32e-07 ± 5.3e-09 | 5.71 ± 0.17
313.2 K | 1.22e-07 ± 4.9e-09 | 4.6 ± 0.14
323.19 K | 1.13e-07 ± 4.5e-09 | 3.55 ± 0.11
333.14 K | 1.02e-07 ± 4.1e-09 | 2.55 ± 0.08
343.11 K | 8.99e-08 ± 3.6e-09 | 1.64 ± 0.05
353.08 K | 8.2e-08 ± 3.3e-09 | 0.81 ± 0.03
358.05 K | 7.7e-08 ± 3.1e-09 | 0.46 ± 0.02
363.05 K | 7e-08 ± 2.8e-09 | 0.15 ± 0.01
365.05 K | 6.24e-08 ± 2.6e-09 | –

FCC(F)(F)F [1,1,1,2-tetrafluoroethane]
surface light scattering
Details | kinematic viscosity [m2/s] | surface tension liquid-gas [mN/m]
302.99 K | 1.55e-07 ± 6.2e-09 | 7.45 ± 0.23
312.86 K | 1.41e-07 ± 5.6e-09 | 6.19 ± 0.19
322.92 K | 1.28e-07 ± 5.1e-09 | 4.95 ± 0.15
332.92 K | 1.17e-07 ± 4.7e-09 | 3.79 ± 0.12
342.9 K | 1.07e-07 ± 4.3e-09 | 2.68 ± 0.08
352.89 K | 9.79e-08 ± 3.9e-09 | 1.65 ± 0.05
363.27 K | 8.56e-08 ± 3.4e-09 | 0.73 ± 0.03
368.26 K | 7.9e-08 ± 3.2e-09 | 0.34 ± 0.02

F/C=C/C(F)(F)F [trans-1,3,3,3-tetrafluoropropene]
surface light scattering
Details | kinematic viscosity [m2/s] | surface tension liquid-gas [mN/m]
295.23 K | 1.78e-07 ± 7.1e-09 | 8.88 ± 0.27
303.19 K | 1.61e-07 ± 6.4e-09 | 7.91 ± 0.24
313.21 K | 1.43e-07 ± 5.7e-09 | 6.66 ± 0.2
323.19 K | 1.32e-07 ± 5.3e-09 | 5.48 ± 0.17
333 K | 1.19e-07 ± 4.8e-09 | 4.36 ± 0.13
343.05 K | 1.13e-07 ± 4.5e-09 | 3.3 ± 0.1
353 K | 1.05e-07 ± 4.2e-09 | 2.26 ± 0.07
363.12 K | 9.24e-08 ± 3.7e-09 | 1.35 ± 0.04
373.14 K | 8.17e-08 ± 3.3e-09 | 0.54 ± 0.02
